Assay results published in PubChem BioAssay (NCI).
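Cultured in 96-well plates, cells were exposed to test compound for 48 hours across five concentrations. The concentration for 50% growth inhibition is given as GI50. At the TGI there is no net growth.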

Assays:
Assay in all cases: DTP human tumour cell line panel, 48 h
[1] = test system: COLO 205 colon
[2] = test system: MCF7 breast
[3] = test system: BT-549 breast
[4] = test system: KM12 colon
[5] = test system: OVCAR-4 ovarian
[6] = test system: MDA-MB-435
[7] = test system: UO-31 renal
[8] = test system: RXF 393 renal
[9] = test system: HCC-2998 colon
[10] = test system: SK-MEL-28 melanoma
[11] = test system: SF-539 CNS
[12] = test system: HCT-15 colon
[13] = test system: SK-MEL-5 melanoma
[14] = test system: ACHN renal
[15] = test system: HT29 colon
[16] = test system: NCI-H522 lung
[17] = test system: UACC-62 melanoma
[18] = test system: SF-295 CNS
[19] = test system: UACC-257 melanoma
[20] = test system: CCRF-CEM leukemia
[21] = test system: A549 NSCLC
[22] = test system: TK-10 renal
[23] = test system: SF-268 CNS
[24] = test system: PC-3 prostate
[25] = test system: HS 578T breast
[26] = test system: MDA-N
[27] = test system: LOX IMVI melanoma
[28] = test system: SK-OV-3 ovarian
[29] = test system: OVCAR-3 ovarian
[30] = test system: NCI-H460 lung
[31] = test system: NCI-H23 lung
[32] = test system: A498 renal
[33] = test system: MALME-3M melanoma
[34] = test system: MOLT-4 leukemia
[35] = test system: 786-0 renal
[36] = test system: OVCAR-8 ovarian
[37] = test system: SNB-19 CNS
[38] = test system: NCI/ADR-RES ovarian
[39] = test system: NCI-H226 lung
[40] = test system: EKVX NSCLC
[41] = test system: U251 CNS
[42] = test system: T-47D breast
[43] = test system: IGROV1 ovarian
[44] = test system: HL-60(TB) leukemia
[45] = test system: HOP-92 NSCLC
[46] = test system: HOP-62 NSCLC
[47] = test system: DU-145 prostate
[48] = test system: SK-MEL-2 melanoma
[49] = test system: OVCAR-5 ovarian
[50] = test system: SR leukemia
[51] = test system: SNB-75 CNS
[52] = test system: SN12C renal
[53] = test system: MDA-MB-231 breast
[54] = test system: SW-620 colon
[55] = test system: K-562 leukemia
[56] = test system: HCT-116 colon
[57] = test system: CAKI-1 renal
[58] = test system: M14 melanoma
[59] = test system: RPMI-8226 leukemia

## Cc1ccc(-c2cc(C(F)(F)F)nn2-c2ccc(S(N)(=O)=O)cc2)cc1
[1]
  TGI: 50.8 µM
[2]
  TGI: > 58.4 µM
[3]
  TGI: 32.1 µM
[4]
  TGI: 35.9 µM
[5]
  TGI: 46.4 µM
[6]
  TGI: > 56 µM
[7]
  TGI: > 53.2 µM
[8]
  TGI: 36 µM
[9]
  TGI: 33.1 µM
[10]
  TGI: > 56.2 µM
[11]
  TGI: > 59.4 µM
[12]
  TGI: > 56.6 µM
[13]
  TGI: 32.6 µM
[14]
  TGI: > 56 µM
[15]
  TGI: > 55.5 µM
[16]
  GI50: 19.9 µM
  TGI: 77.6 µM
[17]
  TGI: > 53.6 µM
[18]
  TGI: 55.4 µM
[19]
  TGI: > 58.3 µM
[20]
  TGI: 40.7 µM
[21]
  TGI: > 52.6 µM
[22]
  TGI: > 59.2 µM
[23]
  TGI: > 55.8 µM
[24]
  TGI: 34.1 µM
[25]
  TGI: 58.7 µM
[26]
  TGI: 30.9 µM
[27]
  TGI: 31.7 µM
[28]
  TGI: > 57 µM
[29]
  TGI: 32 µM
[30]
  TGI: 37.4 µM
[31]
  TGI: 37.7 µM
[32]
  TGI: 43.4 µM
[33]
  TGI: 46.6 µM
[34]
  TGI: 53.2 µM
[35]
  TGI: > 89.2 µM
[36]
  TGI: > 62.8 µM
[37]
  TGI: > 56.7 µM
[38]
  TGI: 43.1 µM
[39]
  GI50: 28.2 µM
  TGI: > 100 µM
[40]
  TGI: 54.4 µM
[41]
  TGI: > 54.5 µM
[42]
  TGI: > 61.8 µM
[43]
  TGI: > 54.6 µM
[44]
  TGI: 42.7 µM
[45]
  GI50: 12 µM
  TGI: 29.8 µM
[46]
  TGI: > 100 µM
[47]
  TGI: > 57.7 µM
[48]
  TGI: 43.5 µM
[49]
  TGI: > 59.8 µM
[50]
  TGI: 45.3 µM
[51]
  TGI: > 53.8 µM
[52]
  TGI: 42.1 µM
[53]
  TGI: > 54.2 µM
[54]
  TGI: > 56.3 µM
[55]
  TGI: > 50.6 µM
[56]
  TGI: > 58.2 µM
[57]
  TGI: > 60.1 µM
[58]
  TGI: > 60 µM
[59]
  TGI: 29.9 µM
